Measurements published in ChEMBL document CHEMBL3091360, “Homosecoiridoid alkaloids with amino acid units from the flower buds of Lonicera japonica” (J Nat Prod, 2013).
Calls of active or inactive are those of the source. No cut-off for these calls is given here.

Assays:
Coxsackievirus B3 = experiment: Antiviral activity against Coxsackie virus B3 assessed as inhibition of viral replication; format: functional, organism-based; details: Enterovirus B
A549 = experiment: Cytotoxicity against human A549 cells at 10 uM after 96 hrs by MTT assay; format: functional, cell-based
[1] = Antiinflammatory activity in rat polymorphonuclear leukocytes assessed as inhibition of PAF-induced release of glucuronidase at 10 uM; format: functional
[2] = test system: Human immunodeficiency virus 1; experiment: Antiviral activity against HIV1 infected in human 293T cells expressing VSV-G assessed as inhibition of viral p24 production at 10 uM after 48 hrs by ELISA; format: functional, organism-based
Bel-7402 = experiment: Cytotoxicity against human Bel7402 cells at 10 uM after 96 hrs by MTT assay; format: functional, cell-based
MCF7 = experiment: Cytotoxicity against human MCF7 cells at 10 uM after 96 hrs by MTT assay; format: functional, cell-based
KETR3 = experiment: Cytotoxicity against human Ketr3 cells at 10 uM after 96 hrs by MTT assay; format: functional, cell-based
BGC-823 = experiment: Cytotoxicity against human BGC823 cells at 10 uM after 96 hrs by MTT assay; format: functional, cell-based
HCT-8 = experiment: Cytotoxicity against human HCT8 cells at 10 uM after 96 hrs by MTT assay; format: functional, cell-based
Influenza A virus H3N2 = experiment: microbe, parasite or virus in culture; details: Hanfang/359/95

| Compound | IC50 (Coxsackievirus B3) | Activity (A549) | inhibition at 10 µM [1] | inhibition [2] | Activity (Bel-7402) | Activity (MCF7) | Activity (KETR3) | Activity (BGC-823) | Activity (HCT-8) | IC50 (Influenza A virus H3N2) |
| --- | --- | --- | --- | --- | --- | --- | --- | --- | --- | --- |
| Cc1cc(CCCOc2c(C)cc(-c3noc(C(F)(F)F)n3)cc2C)on1 [PLECONARIL] | 0.3 µM |  |  |  |  |  |  |  |  |  |
| C=C[C@H]1[C@H](O[C@@H]2O[C@H](CO)[C@@H](O)[C@H](O)[C@H]2O)OC=C(C(=O)O)[C@H]1/C=C/c1ccc[n+]([C@H](Cc2ccccc2)C(=O)[O-])c1 | 12.3 µM | inactive | 53.8% | inactive | inactive | inactive | inactive | inactive | inactive | 6.8 µM |
| C=C[C@H]1[C@H](O[C@@H]2O[C@H](CO)[C@@H](O)[C@H](O)[C@H]2O)OC=C(C(=O)O)[C@H]1/C=C/c1ccc[n+]([C@@H](C)C(=O)[O-])c1 |  | inactive | 63.2% | inactive | inactive | inactive | inactive | inactive | inactive | 11.6 µM |
| COC[C@H]1O[C@@H](n2cnc3c(N)ncnc32)[C@H](O)[C@@H]1O |  | inactive | < 30% | inactive | inactive | inactive | inactive | inactive | inactive | 3.4 µM |
| C=C[C@H]1[C@H](O[C@@H]2O[C@H](CO)[C@@H](O)[C@H](O)[C@H]2O)OC=C(C(=O)[O-])[C@H]1/C=C/c1cc(C(=O)O)c[n+]([C@@H](CC(C)C)C(=O)O)c1 |  | inactive | < 30% | inactive | inactive | inactive | inactive | inactive | inactive | 10.3 µM |
| O=C(/C=C/c1ccc(O)c(O)c1)O[C@@H]1[C@H](O)C[C@@](O)(C(=O)O)C[C@H]1OC(=O)/C=C/c1ccc(O)c(O)c1 |  | inactive | < 30% | inactive | inactive | inactive | inactive | inactive | inactive | 10.2 µM |
| C=C[C@H]1[C@H](O[C@@H]2O[C@H](CO)[C@@H](O)[C@H](O)[C@H]2O)OC=C(C(=O)O)[C@H]1/C=C/c1cc(C(=O)O)c[n+]([C@H](Cc2ccccc2)C(=O)[O-])c1 |  | inactive | < 30% | inactive | inactive | inactive | inactive | inactive | inactive | 8.2 µM |
